Columns and labels:
[1] = system: calcium flux (release of Ca2+) in HDFa cells obtained from skin fibroblasts; experiment: Inhibition of calcium flux (IC50Ca2+) on cells obtained from skin fibroblasts HDFa; type: cell-based; conditions: 50% inhibitory concentration for the release of Ca2+
Source text: (§1) In order for a substance to be recognized as a calcium-channel inhibitor, it must be able to reduce the intracellular calcium concentration or reduce the binding of calcium to intracellular proteins such as, for example, calmodulin, as is described especially by Galizzi, J. P. et al., J. Biol. Chem. 1987, 262 p. 6947; by Y. Okamiya et al., Eur. J. Pharmacol. 1991, 205, p. 49; by J. A. Wagner et al., J. Neurosci. 1988, 8, p. 3354; by H. R. Lee et al., Life Sci. 1984, 35, p. 721; by Schoemaker H. and Lauger S. Eur. J. Pharmacol. 1985, 111, p. 273 or I. J. Reynolds et al., J. Pharmacol. Exp. Ther. 1986, 237, p. 731.
(§2) According to the protocol indicated in these documents, the Assignee determined the IC50Ca2+ of inhibition of calcium flux for compounds (Ia), (IIa) to (IId), (IIIa) and (IIIb), in comparison with verapamil. IC50Ca2+ represents the 50% inhibitory concentration for the release of Ca^2+.

[2] = system: calcium flux (release of Ca2+) in SK-N-SH nerve cells; experiment: Inhibition of calcium flux (IC50Ca2+) on nerve cells SK-N-SH; type: cell-based; conditions: Homo sapiens, 50% inhibitory concentration for the release of Ca2+
Source text: as §1, §2

[3] = system: normal human fibroblasts inserted into a fibrillar collagen gel (dermal equivalent); experiment: Contraction of dermal equivalents (fibroblasts in fibrillar collagen gel), dermo-decontracting effect; type: cell-based
Source text: This model thus makes it possible to evaluate the relaxing potential of compounds by measuring the delay in contraction of the treated dermal equivalents relative to the control dermal equivalents prepared under the same conditions. Verapamil is used as reference molecule.
Dermal fibroblasts are isolated from human skin explants and cultured in MEM medium+additives (10% foetal calf serum, 1% glutamine, 1% non-essential amino acids, 1% sodium pyruvate, 1% Fungizone and 1% penicillin/streptomycin). The collagen used is obtained from a commercial solution. It is extracted from rat tails and stored in acidic medium at +4° C. It is dialysed beforehand against successive baths of acetic acid of decreasing concentration.
The mixture is homogenized cautiously, so as to obtain a distribution of the cells in the collagen matrix that is as uniform as possible. It is then distributed in each well of a 12-well culture dish at a rate of 2 ml/well. The final cell concentration is 3×10^4 cells/dermal equivalent with a final collagen concentration of 1 mg/ml.
The culture dishes are incubated at 37° C./5% CO2 so as to obtain polymerization and gelation of the collagen. The dermal equivalents thus treated adhere to the dishes and the cells are subjected to mechanical stresses that potentiate their contractile properties. The cells thus cultured in 3D end up under conditions close to those of the dermis. After culturing for three days under these “attached” conditions, the dermal equivalents are detached from their support by gentle agitation. […]
To do this, a digital image is acquired for each treated or untreated dermal equivalent using a camera (CCD camera—Iris Sony DXC -107P) and on each of them, the small (D1) and large (D2) diameters of the dermal equivalent are measured by computer. The surface area is calculated according to the formula for calculating an ellipse: S=(D1×D2×π)/4. […] The percentage of contraction is calculated according to the formula below, in which Si represents the surface area of the dermal equivalent at Ti: […]

fibroblasts = experiment: Cytotoxicity check in the dermal equivalent test; type: cell-based, human

Row | SMILES | IC50 [2] [µM] | IC50 [1] [µM] | further results
1 | CCCCCCCN(C)CCC(=O)c1ccccc1 [Compound (IIb)] | 26 | 31 | 
2 | COc1ccc(CCN(C)CCCC(C#N)(c2ccc(OC)c(OC)c2)C(C)C)cc1OC (stereo not drawn) [verapamil] |  |  | difference in the degree of contraction compared with control dermal equivalents ([3]; tested at 10 μM, same conditions (4 days of contact)): 32%
3 | CCCCCC(O)(CCCCC)CCN(CC)CCC(=O)c1ccccc1 [Compound (IId), 3-[ethyl(3-hydroxy-3-pentyloctyl)amino]-1-phenylpropan-1-one] | 3 | 4 | 
4 | CCCCCCCNCCC(=O)c1ccccc1 [Compound (IIc)] | 36 | 46 | 
5 | CCN(CCCc1ccccc1)CCCc1ccccc1 [alverine, reference compound] | 30 |  | activity in the dermal equivalent contraction test ([3]; tested under the same conditions): no activity

The remaining molecules from weak to strong by IC50 [2], led by results:

Row | IC50 [2] [µM] | SMILES | IC50 [1] [µM] | further results
6 | 41 | COc1cc(CNCCC(=O)c2ccccc2)ccc1O [Compound (IIIa)] | 30 | 
7 | 36 | CN(CCC(=O)c1ccccc1)CCC(=O)c1ccccc1.Cl [Compound (Ia)] |  | difference in the degree of contraction compared with control dermal equivalents ([3]; tested at 1 μm, after 4 days of contact with the fibroblasts): 25%; cytotoxicity as cause of the decontracting effect (fibroblasts): did not result from any cytotoxicity
8 | 29 | CCCCCC(=O)CCN(CC)CCC(=O)c1ccccc1 [Compound (IIa)] | 41 | 
9 | 14 | COc1ccc(CCN(C)CCC(=O)c2ccccc2)cc1OC [Compound (IIIb)] | 6 | 
